How the values were obtained:
Assay type in all cases: cell-based, murine
[1] = system: Pan02 cells; test: In vitro cell viability assay (CellTiter-Glo), Pan02
From the text: No significant changes in body weights were noted.

[2] = system: MBT-2 cells; test: In vitro cell viability assay, MBT-2
[3] = system: A20 cells; test: In vitro cell viability assay, A20

For `N.N.[Cl][Pt][Cl]` [Cisplatin, reference compound], the IC50 [1] was 1090 nM, the IC50 [2] was 6870 nM and the IC50 [3] was 1070 nM.

— patent US11033537B2, “LPT-723 and immune checkpoint inhibitor combinations and methods of treatment” (BIOMED VALLEY DISCOVERIES, INC., priority 2015, dated 2021)
